Molecules are shown by their SMILES.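 In this assay, cells in 96-well plates receive the compound at five concentrations for 48 hours. Endpoints are linearly interpolated between the surrounding concentrations. GI50 marks 50% less growth.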 Activity calls are given as the source filed them. No stated cut-off is given here; in the data, active = GI50 up to about 1.1 µM and inactive = higher.

Some test systems named below: A498; CCRF-CEM; COLO 205; HCT-15; K562; KM12; LOX IMVI; M14; MOLT-4; NCI-H460; OVCAR-3; RPMI-8226; SF-268; SK-MEL-28; SK-MEL-5; SK-OV-3; TK-10; UACC-62.
Holding throughout (test): NCI tumour cell line growth inhibition, 48 h

With `CC1(c2cccc3c2C2(O)C=CC4(CCC32)OCCO4)OCCO1` (configuration not stated), the GI50 was > 100 µM (inactive) in the assay with A498; > 100 µM (inactive) in the assay with CCRF-CEM; > 100 µM (inactive) with COLO 205; more than 100 µM in the assay with HCT-15; > 100 µM (inactive) with K562; > 100 µM (inactive) with KM12. Also, the GI50 with LOX IMVI, in the assay with M14, in the assay with MOLT-4, with NCI-H460, in the assay on OVCAR-3 and in the assay with RPMI-8226 was > 100 µM (inactive) in each case. For the same molecule, the GI50 in the assay on SF-268, in the assay with SK-MEL-28, in the assay with SK-MEL-5, in the assay on SK-OV-3, in the assay with TK-10 and in the assay with UACC-62 was > 100 µM (inactive) each time.
As to `O=C1OCC2C1C1c3ccccc3C(O)c3ccccc3C21` (configuration not stated), the GI50 was > 100 µM (inactive) with A498; > 100 µM (inactive) with CCRF-CEM; > 100 µM (inactive) with COLO 205; more than 100 µM in the assay with HCT-15; > 100 µM (inactive) in the assay with K562; > 100 µM (inactive) with KM12. In addition, the GI50 in the assay on LOX IMVI, in the assay on M14, with MOLT-4, in the assay with NCI-H460, in the assay with OVCAR-3 and with RPMI-8226 was > 100 µM (inactive) throughout. Besides, the GI50 with SF-268, in the assay with SK-MEL-28, in the assay with SK-MEL-5, with SK-OV-3, with TK-10 and with UACC-62 was > 100 µM (inactive) throughout.
Regarding `COc1ccc(C(=O)O)c(Cc2ccc3ccccc3c2)c1`, the GI50 in the assay on A498, in the assay on CCRF-CEM, in the assay on COLO 205, in the assay on K562, with KM12 and with LOX IMVI was > 100 µM (inactive) each time. The GI50 with M14, in the assay with MOLT-4, in the assay on NCI-H460, with OVCAR-3, in the assay with RPMI-8226 and with SF-268 was > 100 µM (inactive) in each case. Besides, the GI50 with SK-MEL-28, in the assay on SK-MEL-5, with SK-OV-3, with TK-10 and in the assay with UACC-62 was > 100 µM (inactive) throughout.
With `Cc1ccc(-c2cc(-c3ccccc3)c(C#N)c(=O)n2C2OC(CO)C(O)C(O)C2O)cc1` (configuration not stated), the GI50 in the assay with A498 is > 100 µM (inactive); in the assay on CCRF-CEM it was > 100 µM (inactive); in the assay on COLO 205, > 100 µM (inactive); with HCT-15 it was more than 100 µM; in the assay on K562 it was 86.7 µM (inactive); with KM12 it was > 100 µM (inactive). Moreover, the GI50 in the assay on LOX IMVI was > 100 µM (inactive); with M14, > 100 µM (inactive); in the assay with MOLT-4, 21.1 µM (inactive); with NCI-H460 it was > 100 µM (inactive); in the assay on OVCAR-3, > 100 µM (inactive); with RPMI-8226, > 100 µM (inactive). Further, the GI50 in the assay with SF-268 is > 100 µM (inactive); in the assay with SK-MEL-28 it was > 100 µM (inactive); with SK-MEL-5, 58.5 µM (inactive); in the assay with SK-OV-3, > 100 µM (inactive); in the assay on TK-10, > 100 µM (inactive); in the assay on UACC-62, > 100 µM (inactive).
For the molecule `COc1ccc2c(c1)CC1c3c(ccc(OC)c3O)CC2N1C` (configuration not stated), the GI50 with A498 was > 100 µM (inactive); in the assay on CCRF-CEM, 23.3 µM (inactive); with COLO 205, 18.2 µM (inactive); with HCT-15 it was 34.4 µM; in the assay on K562 it was 20.4 µM (inactive); in the assay with KM12 it was 28.2 µM (inactive). The GI50 is 23.9 µM (inactive) with LOX IMVI; 16.5 µM (inactive) in the assay on M14; 23 µM (inactive) in the assay with MOLT-4; 19.3 µM (inactive) in the assay with NCI-H460; 29.2 µM (inactive) with OVCAR-3; 20.9 µM (inactive) with RPMI-8226. The GI50 in the assay with SF-268 was 54.2 µM (inactive); with SK-MEL-28, 21 µM (inactive); with SK-MEL-5, 18.1 µM (inactive); with SK-OV-3, 62.7 µM (inactive); in the assay with TK-10 it was 64.4 µM (inactive); with UACC-62, 47.4 µM (inactive).
With `OCC(O)C(OC1OC(CO)C(O)C(O)C1O)c1nn(-c2ccccc2)c2nc3cc(Cl)c(Cl)cc3cc12` (configuration not stated), the GI50 with A498 is > 100 µM (inactive); in the assay on CCRF-CEM it was > 100 µM (inactive); in the assay with HCT-15, more than 100 µM; in the assay with K562, > 100 µM (inactive); in the assay on KM12 it was 45 µM (inactive); in the assay with LOX IMVI it was > 100 µM (inactive). Besides, the GI50 in the assay with M14, in the assay on MOLT-4, with NCI-H460, in the assay on OVCAR-3, with RPMI-8226 and in the assay with SF-268 was > 100 µM (inactive) in each case. For the same molecule, the GI50 in the assay on SK-MEL-28, in the assay with SK-OV-3, in the assay with TK-10 and in the assay on UACC-62 was > 100 µM (inactive) in each case.
As to `N#CCCN(CCC#N)c1ccc(C(Sc2ccccc2)C(NC(=O)c2cc([N+](=O)[O-])ccc2Cl)C(=O)Sc2ccccc2)cc1` (configuration not stated), the GI50 with A498 is 2.15 µM (inactive); in the assay on CCRF-CEM, 0.172 µM (active); in the assay on COLO 205, 2.34 µM (inactive); with HCT-15 it was 3.45 µM; with K562 it was 2.39 µM (inactive); in the assay on KM12, 3.53 µM (inactive). For the same molecule, the GI50 in the assay with LOX IMVI was 1.91 µM (inactive); in the assay on M14, 3.32 µM (inactive); in the assay with MOLT-4, 0.385 µM (active); in the assay on NCI-H460 it was 4.41 µM (inactive); in the assay on OVCAR-3 it was 2.56 µM (inactive); with RPMI-8226 it was 1.77 µM (inactive). For the same molecule, the GI50 in the assay with SF-268 is 2.35 µM (inactive); in the assay with SK-MEL-28, 1.96 µM (inactive); in the assay on SK-MEL-5, 3.27 µM (inactive); in the assay on SK-OV-3, 5.42 µM (inactive); in the assay with TK-10, 7.28 µM (inactive); in the assay on UACC-62, 1.68 µM (inactive).
In the case of `COc1c(C)c2c(c3c1c(=O)c1ccccc1n3C)C=CC(C)(C)O2`, the GI50 in the assay with A498 was 32.7 µM (inactive); with CCRF-CEM it was 21.4 µM (inactive); in the assay on COLO 205, 30.7 µM (inactive); with HCT-15, 18.2 µM; in the assay with K562 it was 13.4 µM (inactive); in the assay on KM12, 17.9 µM (inactive). The GI50 in the assay with LOX IMVI was 15.2 µM (inactive); in the assay on M14, 15.5 µM (inactive); in the assay with MOLT-4 it was 19.5 µM (inactive); with NCI-H460, 18.7 µM (inactive); in the assay on OVCAR-3, 19.6 µM (inactive); with RPMI-8226, 9.02 µM (inactive). Besides, the GI50 is 26.4 µM (inactive) with SF-268; 22 µM (inactive) in the assay with SK-MEL-28; 15.3 µM (inactive) with SK-MEL-5; 12.7 µM (inactive) with SK-OV-3; 48.3 µM (inactive) in the assay with TK-10; 14.4 µM (inactive) with UACC-62.
`COC(=O)[C@]1(C)CCC[C@]2(C)C3CC4OOC3(C=C4C(C)(C)O)CCC21` (some centres not stated): the GI50 in the assay on A498 was 24.4 µM (inactive); with CCRF-CEM it was 21.6 µM (inactive); in the assay on COLO 205 it was 69.8 µM (inactive); with HCT-15 it was 37.8 µM; in the assay on K562 it was 21.9 µM (inactive); in the assay with KM12, 42.7 µM (inactive). Moreover, the GI50 was 36.8 µM (inactive) with LOX IMVI; 31 µM (inactive) with M14; 22.2 µM (inactive) with MOLT-4; 33.5 µM (inactive) with NCI-H460; > 100 µM (inactive) in the assay on OVCAR-3; 16.7 µM (inactive) in the assay on RPMI-8226. Also, the GI50 with SF-268 was 60.1 µM (inactive); with SK-MEL-5 it was 34.6 µM (inactive); in the assay with SK-OV-3 it was 76.7 µM (inactive); in the assay with TK-10, > 100 µM (inactive); in the assay on UACC-62, 29.2 µM (inactive).
On to `Cc1cccc(C2=NC(C)(C)C(C)(C)N=C2c2cccc(C)n2)n1`, for which the GI50 is > 100 µM (inactive) in the assay with A498; 71 µM (inactive) in the assay on CCRF-CEM; 67.5 µM (inactive) with COLO 205; more than 100 µM in the assay with HCT-15; 41.8 µM (inactive) in the assay on K562; > 100 µM (inactive) in the assay on KM12. Moreover, the GI50 in the assay on LOX IMVI is > 100 µM (inactive); with M14 it was 71.6 µM (inactive); with NCI-H460, > 100 µM (inactive); in the assay on OVCAR-3 it was 44.1 µM (inactive); in the assay with RPMI-8226, 34.6 µM (inactive); in the assay on SF-268, > 100 µM (inactive). The GI50 in the assay on SK-MEL-28, in the assay on SK-MEL-5, with SK-OV-3, in the assay on TK-10 and in the assay on UACC-62 was > 100 µM (inactive) in each case.
In the case of `COC1=C(C(=O)OC(C)(C)C)C23CCCCC2(C(C(=O)OC(C)(C)C)=C(OC)C3C(=O)OC(C)(C)C)C1C(=O)OC(C)(C)C` (configuration not stated), the GI50 in the assay with A498 is > 100 µM (inactive); with CCRF-CEM it was 27.9 µM (inactive); with COLO 205, 10.4 µM (inactive); with HCT-15, 15.2 µM; in the assay on K562, 9.64 µM (inactive); in the assay with KM12 it was 34 µM (inactive). Moreover, the GI50 in the assay on LOX IMVI was 34.4 µM (inactive); in the assay on M14, 7.89 µM (inactive); in the assay on MOLT-4, 6.46 µM (inactive); in the assay with NCI-H460, 11.5 µM (inactive); with OVCAR-3, 7.8 µM (inactive); in the assay on RPMI-8226 it was 8.47 µM (inactive). For the same molecule, the GI50 in the assay on SF-268 was > 100 µM (inactive); with SK-MEL-5 it was 12.4 µM (inactive); with SK-OV-3, > 100 µM (inactive); in the assay on TK-10 it was > 100 µM (inactive); in the assay on UACC-62, 54.8 µM (inactive).

The values are drawn from ChEMBL document CHEMBL1201862, “PubChem BioAssay data set” (2004).
